Where two headings read alike, the source gives them in different places.
Target: T1, CFTR (Homo sapiens, UniProt P13569, DEL508-508)
T1 construct: endogenous in cells; host or cells: primary human bronchial epithelial cells from CF subjects (F508del/MF-HBE), differentiated at air-liquid interface
Assay: HBE assay: Ussing chamber assay of CFTR-mediated short-circuit currents
Assay type: cell-based
Conditions: for EC50: read-out: HBE EC50
Method in brief: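 CFTR-mediated Isc (μA/cm²) equals the peak response to apical 20 μM forskolin minus the residual after a 20 μM each BPO/GlyH-101/CFTR inhibitor 172 cocktail, recorded in Ussing chambers at Vhold 0 mV, 37 °C, pH 7.4, with 30 μM apical amiloride. Cells were F508del/MF HBE cultures preincubated 18-24 h with corrector (concentration range or 10 μM) plus 1 μM ivacaftor in 20% human serum.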

[1] = Table 10, read-out: HBE Max activity (%)
[2] = Table 11, read-out: HBE Max Activity (%)

T1 sequence (P13569 with tags, fused parts or gaps DEL508-508): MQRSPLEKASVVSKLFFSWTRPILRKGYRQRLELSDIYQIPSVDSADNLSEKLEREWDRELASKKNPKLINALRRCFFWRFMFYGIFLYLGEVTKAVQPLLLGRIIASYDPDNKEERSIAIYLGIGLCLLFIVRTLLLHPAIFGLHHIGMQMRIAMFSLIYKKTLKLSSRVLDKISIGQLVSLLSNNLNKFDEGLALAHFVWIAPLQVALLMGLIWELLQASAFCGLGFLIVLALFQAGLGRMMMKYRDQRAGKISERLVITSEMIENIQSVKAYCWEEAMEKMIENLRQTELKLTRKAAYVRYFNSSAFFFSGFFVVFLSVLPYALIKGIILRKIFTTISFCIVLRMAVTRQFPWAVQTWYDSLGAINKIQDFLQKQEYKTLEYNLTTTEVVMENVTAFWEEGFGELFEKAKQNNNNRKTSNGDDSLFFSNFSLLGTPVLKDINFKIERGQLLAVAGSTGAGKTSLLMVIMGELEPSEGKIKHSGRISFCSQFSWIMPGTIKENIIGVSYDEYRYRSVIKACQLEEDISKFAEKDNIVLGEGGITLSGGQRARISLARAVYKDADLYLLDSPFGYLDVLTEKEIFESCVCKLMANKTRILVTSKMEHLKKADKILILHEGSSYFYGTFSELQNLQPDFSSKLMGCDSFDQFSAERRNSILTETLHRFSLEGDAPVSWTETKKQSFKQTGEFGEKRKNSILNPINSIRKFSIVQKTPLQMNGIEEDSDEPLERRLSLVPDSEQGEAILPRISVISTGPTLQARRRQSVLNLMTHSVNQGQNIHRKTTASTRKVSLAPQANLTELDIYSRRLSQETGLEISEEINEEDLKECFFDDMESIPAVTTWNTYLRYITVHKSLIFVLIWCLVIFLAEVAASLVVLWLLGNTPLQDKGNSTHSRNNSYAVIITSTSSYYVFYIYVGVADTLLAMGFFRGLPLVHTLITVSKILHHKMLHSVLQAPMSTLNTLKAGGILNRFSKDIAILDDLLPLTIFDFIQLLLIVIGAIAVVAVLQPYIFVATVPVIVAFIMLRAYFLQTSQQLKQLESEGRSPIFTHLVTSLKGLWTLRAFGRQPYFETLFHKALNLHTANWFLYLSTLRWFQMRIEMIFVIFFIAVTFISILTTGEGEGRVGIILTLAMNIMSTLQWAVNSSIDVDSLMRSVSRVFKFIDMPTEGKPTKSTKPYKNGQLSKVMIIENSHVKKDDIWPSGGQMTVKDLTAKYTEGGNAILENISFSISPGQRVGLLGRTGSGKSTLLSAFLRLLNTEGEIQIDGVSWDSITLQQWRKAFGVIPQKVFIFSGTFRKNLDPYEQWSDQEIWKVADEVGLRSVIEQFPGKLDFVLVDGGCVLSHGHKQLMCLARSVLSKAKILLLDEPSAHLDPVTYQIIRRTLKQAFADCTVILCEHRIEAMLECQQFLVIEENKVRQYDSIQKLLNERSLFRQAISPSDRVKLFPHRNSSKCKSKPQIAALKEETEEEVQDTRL

Structure (SMILES) | EC50 (Table 10) [nM] | Emax [1] [%] | EC50 (Table 11) [nM] | Emax [2] [%] | other results
CNC(=O)COc1ccc(CN2C(=O)c3cccc(c3)S(=O)(=O)Nc3nc(cc(-c4c(C)cccc4C)n3)OC[C@H]2CC(C)(C)C)cc1 [Compound 778] | < 1000 | > 60 |  |  | 
Cc1cccc(C)c1-c1cc2nc(n1)NS(=O)(=O)c1cccc(c1)C(=O)N(Cc1ccc(OCC(=O)N(C)C)cc1)[C@H](CC(C)(C)C)CO2 [Compound 779] | < 1000 | > 60 |  |  | 
Cc1cccc(C)c1-c1cc2nc(n1)NS(=O)(=O)c1cccc(c1)C(=O)N(Cc1ccc(OCC(N)=O)cc1)[C@H](CC(C)(C)C)CO2 [Compound 780] | < 1000 | > 60 |  |  | 
Cc1cccc(C)c1-c1cc2nc(n1)NS(=O)(=O)c1cccc(c1)C(=O)N(Cc1ccccc1OCC(C)(C)OO)[C@H](CC(C)(C)C)CO2 [Compound 781] | < 1000 | > 60 |  |  | 
Cc1cccc(C)c1-c1cc2nc(n1)NS(=O)(=O)c1cccc(c1)C(=O)N(Cc1ccc(-c3cnc(N)nc3)cc1)[C@H](CC(C)(C)C)CO2 [Compound 782] | < 1000 | > 60 |  |  | 
COc1ncc(-c2ccc(CN3C(=O)c4cccc(c4)S(=O)(=O)Nc4nc(cc(-c5c(C)cccc5C)n4)OC[C@H]3CC(C)(C)C)cc2)cn1 [Compound 783] | < 1000 | > 60 |  |  | 
Cc1cccc(C)c1-c1cc2nc(n1)NS(=O)(=O)c1cccc(c1)C(=O)N(Cc1ccc3c(n1)C(C)CCO3)C(CC(C)(C)C)CO2 (centres unmarked) [Compound 794] |  | > 60 |  |  | 
Cc1cccc(C)c1-c1cc2nc(n1)NS(=O)(=O)c1cccc(c1)C(=O)N(Cc1ccc([Si](C)(C)C)cc1)[C@H](CC(C)(C)C)CO2 [Compound 795] |  |  |  |  | activation at 10 µM (Table 10, read-out: HBE activity at 10 (μM) (%)): > 60%
Cc1cccc(C)c1-c1cc2nc(n1)NS(=O)(=O)c1cccc(c1)C(=O)N(Cc1ccc(C3=CCCC3)cn1)[C@H](CC(C)(C)C)CO2 [Compound 810] |  |  | < 1000 | > 60 | 
Cc1cccc(C)c1-c1cc2nc(n1)NS(=O)(=O)c1cccc(c1)C(=O)N(Cc1cc(CO)ccn1)[C@H](CC(C)(C)C)CO2 [Compound 811] |  |  | < 1000 | > 60 | 
Cc1cccc(C)c1-c1cc2nc(n1)NS(=O)(=O)c1cccc(c1)C(=O)N(Cc1cc(C(C)(C)O)ccn1)[C@H](CC(C)(C)C)CO2 [Compound 812] |  |  | < 1000 | > 60 | 
Cc1cccc(C)c1-c1cc2nc(n1)NS(=O)(=O)c1cccc(c1)C(=O)N(Cc1nccc(C(C)(C)O)n1)[C@H](CC(C)(C)C)CO2 [Compound 813] |  |  | < 1000 | > 60 | 
Cc1cccc(C)c1-c1cc2nc(n1)NS(=O)(=O)c1cccc(c1)C(=O)N(Cc1nccc(C(C)(C)C)n1)[C@H](CC(C)(C)C)CO2 [Compound 814] |  |  | < 1000 | > 60 | 
Cc1cccc(C)c1-c1cc2nc(n1)NS(=O)(=O)c1cccc(c1)C(=O)N(Cc1ncc(C(C)(C)C)cn1)[C@H](CC(C)(C)C)CO2 [Compound 815] |  |  | < 1000 | > 60 | 
Cc1cccc(C)c1-c1cc2nc(n1)NS(=O)(=O)c1cccc(c1)C(=O)N(Cc1cccc(CO)n1)[C@H](CC(C)(C)C)CO2 [Compound 816] |  |  | < 1000 | > 60 | 
Cc1cccc(C)c1-c1cc2nc(n1)NS(=O)(=O)c1cccc(c1)C(=O)N(Cc1cccc(C(C)(C)O)n1)[C@H](CC(C)(C)C)CO2 [Compound 817] |  |  | < 1000 | > 60 | 
Cc1cccc(C)c1-c1cc2nc(n1)NS(=O)(=O)c1cccc(c1)C(=O)N(CC1CCCOC1)[C@H](CC(C)(C)C)CO2 (some centres unmarked) [Compound 818] |  |  | < 1000 | > 60 | 
Cc1cccc(C)c1-c1cc2nc(n1)NS(=O)(=O)c1cccc(c1)C(=O)N(CC1CCCOC1)[C@H](CC(C)(C)C)CO2 (some centres unmarked) [Compound 819] |  |  | < 1000 |  | 
Cc1cccc(C)c1-c1cc2nc(n1)NS(=O)(=O)c1cccc(c1)C(=O)N(CC1CCOCC1)[C@H](CC(C)(C)C)CO2 [Compound 820] |  |  | < 1000 | > 60 | 
Cc1cccc(C(C)C)c1-c1cc2nc(n1)NS(=O)(=O)c1cccc(c1)C(=O)N(Cc1ccc(N3CCOCC3)cn1)[C@H](CC(C)(C)C)CO2 [Compound 821] |  |  | < 1000 | > 60 | activation at 10 µM (Table 11, read-out: HBE Activity at 10 μM (%)): > 60%

From patent US20240150377A1, “MODULATORS OF CYSTIC FIBROSIS TRANSMEMBRANE CONDUCTANCE REGULATOR” (VERTEX PHARMACEUTICALS INCORPORATED, priority 2020, published 2024)
